Results published in PubChem BioAssay (NCI).
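Compound exposure: 48 hours, 5 concentrations, 96-well plates. Here, GI50 denotes the concentration required for 50% inhibition of growth. At the TGI there is no net growth.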

Key:
Assay in all cases: NCI-60 cell line screen, 48 h
DU-145 prostate = tested on: DU-145 prostate
MDA-MB-231 breast = tested on: MDA-MB-231 breast
CAKI-1 renal = tested on: CAKI-1 renal
A549 NSCLC = tested on: A549 NSCLC
RXF 393 renal = tested on: RXF 393 renal
ACHN renal = tested on: ACHN renal
HOP-92 NSCLC = tested on: HOP-92 NSCLC
SF-268 CNS = tested on: SF-268 CNS
OVCAR-4 ovarian = tested on: OVCAR-4 ovarian
HOP-62 NSCLC = tested on: HOP-62 NSCLC
RPMI-8226 leukemia = tested on: RPMI-8226 leukemia
SN12C renal = tested on: SN12C renal
SR leukemia = tested on: SR leukemia
LOX IMVI melanoma = tested on: LOX IMVI melanoma
UACC-62 melanoma = tested on: UACC-62 melanoma
NCI-H226 lung = tested on: NCI-H226 lung
HCT-116 colon = tested on: HCT-116 colon
HL-60(TB) leukemia = tested on: HL-60(TB) leukemia
SNB-75 CNS = tested on: SNB-75 CNS
SF-295 CNS = tested on: SF-295 CNS
PC-3 prostate = tested on: PC-3 prostate
SNB-19 CNS = tested on: SNB-19 CNS
U251 CNS = tested on: U251 CNS
BT-549 breast = tested on: BT-549 breast
A498 renal = tested on: A498 renal
TK-10 renal = tested on: TK-10 renal
M14 melanoma = tested on: M14 melanoma
T-47D breast = tested on: T-47D breast

COc1ccc(C2C=C(c3ccc(OC)c(OC)c3)N=C3SC=CN32)c(Br)c1 (stereo unspecified)
GI50 (DU-145 prostate): 3.44 µM
TGI (DU-145 prostate): 11.6 µM
GI50 (MDA-MB-231 breast): 4.5 µM
TGI (MDA-MB-231 breast): 21.3 µM
GI50 (CAKI-1 renal): 13.4 µM
TGI (CAKI-1 renal): 33.8 µM
GI50 (A549 NSCLC): 2.4 µM
TGI (A549 NSCLC): 7.86 µM
GI50 (RXF 393 renal): 2.08 µM
TGI (RXF 393 renal): 3.98 µM
GI50 (ACHN renal): 2 µM
TGI (ACHN renal): 4.33 µM
GI50 (HOP-92 NSCLC): 8.66 µM
TGI (HOP-92 NSCLC): 38.3 µM
GI50 (SF-268 CNS): 3.42 µM
TGI (SF-268 CNS): 14.3 µM
GI50 (OVCAR-4 ovarian): 7.1 µM
TGI (OVCAR-4 ovarian): 49.4 µM
GI50 (HOP-62 NSCLC): 3.16 µM
TGI (HOP-62 NSCLC): 11.1 µM
GI50 (RPMI-8226 leukemia): 1.77 µM
TGI (RPMI-8226 leukemia): 5.98 µM
GI50 (SN12C renal): 4.77 µM
TGI (SN12C renal): 21.2 µM
GI50 (SR leukemia): 1.95 µM
TGI (SR leukemia): 4.79 µM
GI50 (LOX IMVI melanoma): 1.88 µM
TGI (LOX IMVI melanoma): 3.74 µM
GI50 (UACC-62 melanoma): 2.47 µM
TGI (UACC-62 melanoma): 7.06 µM
GI50 (NCI-H226 lung): 2.84 µM
TGI (NCI-H226 lung): 25.5 µM
GI50 (HCT-116 colon): 1.52 µM
TGI (HCT-116 colon): 3.25 µM
GI50 (HL-60(TB) leukemia): 3.06 µM
TGI (HL-60(TB) leukemia): 23 µM
GI50 (SNB-75 CNS): 3.1 µM
TGI (SNB-75 CNS): 14.3 µM
GI50 (SF-295 CNS): 11.5 µM
TGI (SF-295 CNS): 26.9 µM
GI50 (PC-3 prostate): 3.88 µM
TGI (PC-3 prostate): 41 µM
GI50 (SNB-19 CNS): 7.3 µM
TGI (SNB-19 CNS): 21.6 µM
GI50 (U251 CNS): 1.6 µM
TGI (U251 CNS): 3.24 µM
GI50 (BT-549 breast): 2.1 µM
TGI (BT-549 breast): 5.71 µM
GI50 (A498 renal): 3.47 µM
TGI (A498 renal): 17.1 µM
GI50 (TK-10 renal): 3.64 µM
TGI (TK-10 renal): 15.3 µM
GI50 (M14 melanoma): 2.23 µM
TGI (M14 melanoma): 5.32 µM
GI50 (T-47D breast): 3.2 µM
TGI (T-47D breast): 11.5 µM
